In patent US4069316A, “Method for producing antibiotic T-42082 and antibiotic T-42082” (Takeda Chemical Industries, Ltd., priority 1976, dated 1978):

System: Eimeria tenella
Assay: Experimental 3: anticoccidial effect in chicks inoculated with drug-resistant wild strain
Protocol: The following experiment was carried out with a wild strain resistant to the conventional anticoccidial drugs.
The oocysts, predominantly of Eimeria tenella, obtained from a wild strain were used to inoculate chicks at a rate of 10×10^5 sporulated oocysts per bird. […] The battery test procedure was repeated.

NC(=NN=Cc1ccc(Cl)cc1)NN=Cc1ccc(Cl)cc1 [Lobenidine]
At end of experiment/At start of experiment (No. of birds) (33.0 ppm): 3/3 | Relative Weight gain (33.0 ppm): 26.4% | The pathological change of caecum: birds scored + (33.0 ppm): 0 | The pathological change of caecum: birds scored ++ (33.0 ppm): 0 | The pathological change of caecum: birds scored +++ (33.0 ppm): 0 | The pathological change of caecum: birds scored ++++ (33.0 ppm): 3 | The pathological change of caecum: birds scored - (33.0 ppm): 0 | No. of blood drops/per bird (33.0 ppm, day 4): 2.3 | No. of blood drops/per bird (33.0 ppm, day 5): 9.3 | No. of deaths (33.0 ppm, day 5): 0 | No. of blood drops/per bird (33.0 ppm, day 6): 9.3 | No. of deaths (33.0 ppm, day 6): 0 | No. of blood drops/per bird (33.0 ppm, day 7): 6.0 | No. of deaths (33.0 ppm, day 7): 0 | No. of deaths (33.0 ppm, day 8): 0 | At end of experiment/At start of experiment (No. of birds) (66.0 ppm): 3/3 | Relative Weight gain (66.0 ppm): 53.4% | The pathological change of caecum: birds scored + (66.0 ppm): 0 | The pathological change of caecum: birds scored ++ (66.0 ppm): 0 | The pathological change of caecum: birds scored +++ (66.0 ppm): 0 | The pathological change of caecum: birds scored ++++ (66.0 ppm): 3 | The pathological change of caecum: birds scored - (66.0 ppm): 0 | No. of blood drops/per bird (66.0 ppm, day 4): 0.6 | No. of blood drops/per bird (66.0 ppm, day 5): 8.0 | No. of deaths (66.0 ppm, day 5): 0 | No. of blood drops/per bird (66.0 ppm, day 6): 10.0 | No. of deaths (66.0 ppm, day 6): 0 | No. of blood drops/per bird (66.0 ppm, day 7): 4.6 | No. of deaths (66.0 ppm, day 7): 0 | No. of deaths (66.0 ppm, day 8): 0
